# Laboratory results from US4386211A, “Anti-ulcer urea compounds” (G. D. Searle & Co., priority 1981, dated 1983).
# Legend:
# H-2 receptors = H-2 receptors (Rattus norvegicus, UniProt P25102); test: Rat uterus assay: reversal of histamine inhibition of electrically induced contractions; details: isolated rat uterine smooth muscle; dose ratios of 2 or more indicate activity
# Description: Histamine reduces contractions induced by electrical stimulation of the isolated rat uterine smooth muscle, and histamine H-2 antagonists reverse this inhibition. The dose ratio for a specific concentration of test compound is determined by an assay procedure that compares the inhibitory effect of two concentrations of histamine in the presence of the test compound to the inhibitory effect of two concentrations of histamine in the absence of the test compound. The dose ratio is defined as the ratio of the concentration of histamine in the presence of the test compound to the concentration of histamine in the absence of the test compound where both concentrations produce the same inhibition of the electrical response. Dose ratios of 2 or more indicate activity. Compounds that are active at 40 ug/ml will be tested against isoproterenol at the same concentration in a similar test. Compound concentrations that are active against histamine but not against isoproterenol will be classified as specific H-2 antagonists.
# The same type of receptors H-2 are involved in inhibition of contractions of the rat uterus and stimulation of gastric acid secretion. The rat uterus is therefore used as a model upon which to test for histamine H-2 antagonists that may be effective in treating peptic ulcers.
# ulcer formation = details: in vivo; cited from earlier work
# gastric acid secretion = details: in vivo; cited from earlier work
# H2 receptor = test: Lipolysis assay: histamine-stimulated lipolysis in isolated fat cells; assay type: cell-based; details: isolated dog fat cells, histamine 2×10^-6 M; active = 50 percent or more inhibition
# Description: Isolated fat cells of dogs are prepared from adipose tissue. Cells are incubated in the presence or absence of histamine at 2×10^-6 M. Additional flasks contain the compound to be tested, plus histamine. At the end of the incubation the cell cultures are analyzed for glycerol content, and results are converted into a lipolysis rate. The stimulation of lipolysis attributed to histamine (D) is the difference between the rate observed in its presence and absence:
# These figures are then converted to a percent inhibition by the formula:
# Percent inhibition=(D-E)/D×100
# [1] = humans; cited from earlier work
# Chain of H-2 receptors (P25102 whole entry): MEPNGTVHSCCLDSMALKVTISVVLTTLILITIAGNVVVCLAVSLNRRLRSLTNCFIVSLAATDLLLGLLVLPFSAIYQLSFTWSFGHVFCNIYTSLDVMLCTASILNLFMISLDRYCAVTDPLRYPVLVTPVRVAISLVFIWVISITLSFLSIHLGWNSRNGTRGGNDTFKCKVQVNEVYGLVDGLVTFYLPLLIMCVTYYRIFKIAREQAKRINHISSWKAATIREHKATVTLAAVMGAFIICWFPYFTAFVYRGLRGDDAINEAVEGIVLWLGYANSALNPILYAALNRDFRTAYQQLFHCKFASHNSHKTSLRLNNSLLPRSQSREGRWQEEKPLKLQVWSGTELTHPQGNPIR
Structure (SMILES),activity in rat uterus assay (H-2 receptors),ulcer formation (ulcer formation),gastric acid secretion (gastric acid secretion),classification in lipolysis assay (active against histamine but not norepinephrine = specific) (H2 receptor),severe toxic symptoms [1],untoward effects observed [1]
CNC(=S)NCCCCc1cnc[nH]1 [burimamide],active,inhibit,inhibit,,,
CN/C(=N/CCSCc1nc[nH]c1C)NC#N [cimetidine],active,inhibit,inhibit,specific inhibitors,no severe toxic symptoms,"gynecomastia, elevated SGOT, SGPT and creatine, and increases in serum gastrin"
C/N=C(\S)NCCSCc1[nH]cnc1C [metiamide],active,inhibit,inhibit,specific inhibitors,,
